Test results as given in ChEMBL document CHEMBL2407070, “Bioactive compounds from the roots of Strophioblachia fimbricalyx” (J Nat Prod, 2013).
pIC50: −log10 of the molar value.

Assays:
MCF7 = experiment: cells; conditions: Homo sapiens
Description: Cytotoxicity against human MCF7 cells by SRB assay

KB = experiment: Cytotoxicity against human KB cells by SRB assay; type: functional, cell-based
Plasmodium falciparum = experiment: Antiplasmodial activity against Plasmodium falciparum K1 after 42 hrs by microdilution method; type: functional, organism-based; conditions: K1, 42 h
NCI-H187 [1] = experiment: Cytotoxicity against human NCI-H187 cells by SRB assay; type: functional, cell-based
Vero = experiment: Cytotoxicity against african green monkey Vero cells by SRB assay; type: functional, cell-based; conditions: Chlorocebus sabaeus
NCI-H187 [2] = experiment: Cytotoxicity against human NCI-H187 cells; type: functional, cell-based

| Compound | pIC50 (MCF7) | pIC50 (Plasmodium falciparum) | pIC50 (KB) | pIC50 (NCI-H187 [1]) | pIC50 (Vero) | pIC50 (NCI-H187 [2]) |
| --- | --- | --- | --- | --- | --- | --- |
| O[C@@H](c1cc(C(F)(F)F)nc2c(C(F)(F)F)cccc12)[C@H]1CCCCN1 (relative stereo) [(S,R)-MEFLOQUINE] |  | 7.51 |  |  |  |  |
| C[C@H]1[C@@H](O)O[C@@H]2O[C@@]3(C)CC[C@H]4[C@H](C)CC[C@@H]1[C@@]24OO3 [ARTENIMOL] |  | 8.60 |  |  |  |  |
| COc1cccc2c1C(=O)c1c(O)c3c(c(O)c1C2=O)C[C@@](O)(C(=O)CO)C[C@@H]3O[C@H]1C[C@H](N)[C@H](O)[C@H](C)O1 [DOXORUBICIN] |  |  | 6.25 | 6.85 |  |  |
| Cc1c2ccncc2c(C)c2c1[nH]c1ccccc12 [ELLIPTECINE] |  |  | 5.92 | 5.94 | 5.92 |  |
| CC/C(=C(\c1ccccc1)c1ccc(OCCN(C)C)cc1)c1ccccc1 [TAMOXIFEN] | 5.28 |  |  |  |  |  |

Second part, led by results:

| pIC50 (MCF7) | pIC50 (Plasmodium falciparum) | Compound | pIC50 (KB) | pIC50 (NCI-H187 [1]) | pIC50 (Vero) | pIC50 (NCI-H187 [2]) |
| --- | --- | --- | --- | --- | --- | --- |
| < 5.00 | < 5.00 | COc1cc2c3c(cc(O)c2cc1C)C(C)(C)C(=O)[C@]1(OC)Oc2c(cc4c(cc(OC)c5cc(C)c(OC)cc54)c2C)O[C@H]31 | < 5.00 | < 5.00 |  |  |
| < 5.00 | < 5.00 | COc1cc2c3c(cc(O)c2cc1C)C(C)(C)C(=O)[C@@]1(OC)Oc2c(cc4c(cc(OC)c5cc(C)c(OC)cc54)c2C)O[C@H]31 | < 5.00 | < 5.00 |  |  |
| < 5.00 | < 5.00 | COc1cc2c3c(cc(OC)c2cc1C)C(C)(O)OC3=O (stereo not given) | < 5.00 | < 5.00 |  |  |
| < 5.00 | 5.41 | COc1cc2c3c(cc(O)c2cc1C)C(C)(C)C(=O)OC3=O | < 5.00 | 5.24 | < 5.00 |  |
| < 5.00 | 5.54 | COC1=Cc2c(cc(OC3=C4C(=CC(=O)C4(C)C)c4cc(OC)c(C)cc4C3=O)c3cc(C)c(OC)cc23)C(C)(C)C1=O | < 5.00 |  | < 5.00 | 5.08 |
| < 5.00 | 7.71 | COC1=C2C(=CC(=O)C(O)=C2C)c2cc(OC)c(C)cc2C1=O | < 5.00 | < 5.00 | < 5.00 |  |
